Results taken from patent US20160287672A1, “METHOD OF TREATING CHRONIC HEART FAILURE BY ADMINISTERING RELAXIN” (priority 2008, published 2016).

How the values were obtained:
[1] = test system: patients with chronic and stable compensated congestive HF; assay: Open-label pilot study of IV recombinant relaxin over 24 hours in chronic heart failure patients; format: in vivo, human; settings: for PCWP Change from baseline / PVR Change from baseline / RAP Change from baseline / SBP Change from baseline / SVR Change from baseline / CI Change from baseline / CO Change from baseline / DBP Change from baseline / HR Change from baseline / PAP Change from baseline: mean ± SD
Protocol: Overview. In this open-label study 16 patients with chronic and stable compensated congestive HF were enrolled in three dose-ascending cohorts of recombinant intravenous relaxin (10 to 960 mcg/kg/day) over 24 hours. Relaxin produced increases in cardiac index and stroke volume, and a decrease in pulmonary wedge pressure and NT-pro BNP. It improved markers of renal function, with a small rebound at the highest dose during post-infusion. […] A maximally tolerated dose was determined.
Design of Study. In this single-center, open-label study, 16 patients who fulfilled inclusion and but not exclusion criteria for chronic and stable compensated congestive HF were sequentially allocated to three ascending cohorts of intravenous (IV) relaxin. Main inclusion criteria included: Age >18 years; NYHA CHF Class II-III without restriction on etiology; left ventricular ejection fraction <35% within 6 months of enrollment; receiving established oral HF therapy expected to remain unchanged during the study period. Main exclusion criteria included: Wedge pressure <16 mmH or CI >2.5 L/min/m2; acute coronary syndrome (within 4 weeks) or recent myocardial infarction or cardiac surgery (within 6 months); AHF requiring intravenous therapy at baseline; systolic blood pressure <85 mmHg; uncorrected valvular heart disease, except for relative mitral and/or tricuspid valve insufficiency; obstructive or restrictive cardiomyopathy; recent episode of ventricular tachycardia or fibrillation (within 4 weeks); recent stroke (within 3 months); creatinine >2.0 mg/dl or serum transaminases and/or total bilirubin >2.5 times the upper limit of normal at screening visit; history of endometriosis.
The study drug was relaxin (produced by recombinant technology). Recombinant relaxin is identical to the native human hormone H2 relaxin. The dose escalation was as follows: Group A included sequential treatment for 8 hours each with dosages equivalent to 10, 30, and 100 mcg/kg/day. Group B included sequential treatment for 8 hours each with dosages equivalent to 240, 480, and 960 mcg/kg/day. Group C received 24 hours of treatment with 960 mcg/kg/day. Escalation from Group A to Group B was done after examining safety and tolerability of the doses used in Group A. Escalation from Group B to C occurred after the safety and tolerability of the highest dose in Group B (960 mcg/kg/day) was determined.
Patients were monitored in the intensive care unit for the infusion and post-infusion periods (24 hours either). Hemodynamic measurements, including CI, SVR, PCWP, SBP, RAP, and PVR, were serially performed using Swan-Ganz and arterial catheters. Likewise, clinical and laboratory monitoring was carried out serially throughout infusion and post-infusion and on Day 9 after beginning of infusion. An additional 30-day evaluation for serious adverse events was performed by phone. Endpoints included hemodynamic and neurohumoral (NT-pro BNP levels) changes from baseline, as well as monitoring of vital signs, electrocardiogram, serum chemistry, and hematology parameters throughout the study. For statistical analysis, an error probability of P<0.05 was regarded as significant. Baseline values were compared using the Kruskal-Wallis ANOVA on ranks followed by Dunn's test. Differences over time within the single groups (hemodynamics, renal parameter, and peptide levels) were analyzed with a Friedman Repeated Measures Analysis of Variance on Ranks followed by Dunn's test for comparison against the baseline.

[2] = test system: hypertensive and normotensive rats; settings: cited from earlier work
[3] = Group C, 960 mcg/kg/d IV over 24 hours
[4] = Group C, 960 mcg/kg/d IV, 24 hr

With “relaxin: Study drug produced by recombinant technology, identical to the native human hormone H2 relaxin; peptide hormone of A and B chains” the “PCWP Change from baseline” value ([1]; Group B, 480 mcg/kg/d IV, 8 hr) was 0.33 ± 2.6 mmHg, the “PVR Change from baseline” value ([1]; Group B, 480 mcg/kg/d IV, 8 hr) was 5.5 ± 35.2 dynes * sec/cm5 and the “RAP Change from baseline” value ([1]; Group B, 480 mcg/kg/d IV, 8 hr) was 0.5 ± 1.1 mmHg. The “SBP Change from baseline” value ([1]; Group B, 480 mcg/kg/d IV, 8 hr) was 2.2 ± 5.6 mmHg, the “SVR Change from baseline” value ([1]; Group B, 480 mcg/kg/d IV, 8 hr) was −12 ± 219 dynes * sec/cm5 and the “CI Change from baseline” value ([1]; Group B, 960 mcg/kg/d IV, 8 hr) was 0.25 ± 0.3 L/min/m2. For the same substance, the “CO Change from baseline” value ([1]; Group B, 960 mcg/kg/d IV, 8 hr) was 0.48 ± 0.7 L/min, the “DBP Change from baseline” value ([1]; Group B, 960 mcg/kg/d IV, 8 hr) was −0.3 ± 6.8 mmHg and the “HR Change from baseline” value ([1]; Group B, 960 mcg/kg/d IV, 8 hr) was 1.8 ± 3.4 beats/min. The “PAP Change from baseline” value ([1]; Group B, 960 mcg/kg/d IV, 8 hr) was 0.3 ± 3.7 mmHg, the “PCWP Change from baseline” value ([1]; Group B, 960 mcg/kg/d IV, 8 hr) was −0.17 ± 2.7 mmHg and the “PVR Change from baseline” value ([1]; Group B, 960 mcg/kg/d IV, 8 hr) was 3.3 ± 27.5 dynes * sec/cm5. For the same substance, the “RAP Change from baseline” value ([1]; Group B, 960 mcg/kg/d IV, 8 hr) was 0.8 ± 1.2 mmHg, the “SBP Change from baseline” value ([1]; Group B, 960 mcg/kg/d IV, 8 hr) was −3.0 ± 5.1 mmHg and the “SVR Change from baseline” value ([1]; Group B, 960 mcg/kg/d IV, 8 hr) was −102 ± 248 dynes * sec/cm5. The “absolute decreases in PCWP” value [1, 3] was “approximately 4 mm Hg”, the “absolute increases of CI” value [1, 3] was “up to 0.81 /min/m2” and the “CI Change from baseline” value ([1]; Group C, 960 mcg/kg/d IV, 8 hr) was 0.43 ± 0.3 L/min/m2. The “CO Change from baseline” value ([1]; Group C, 960 mcg/kg/d IV, 8 hr) was 0.85 ± 0.5 L/min, the “DBP Change from baseline” value ([1]; Group C, 960 mcg/kg/d IV, 8 hr) was −4.8 ± 5.4 mmHg and the “HR Change from baseline” value ([1]; Group C, 960 mcg/kg/d IV, 8 hr) was 2.5 ± 4.3 beats/min. The “PAP Change from baseline” value ([1]; Group C, 960 mcg/kg/d IV, 8 hr) was −3.2 ± 3.1 mmHg, the “PCWP Change from baseline” value ([1]; Group C, 960 mcg/kg/d IV, 8 hr) was −2.5 ± 3.5 mmHg and the “PVR Change from baseline” value ([1]; Group C, 960 mcg/kg/d IV, 8 hr) was −58.5 ± 69.4 dynes * sec/cm5. For the same substance, the “RAP Change from baseline” value ([1]; Group C, 960 mcg/kg/d IV, 8 hr) was −1.2 ± 2.9 mmHg, the “SBP Change from baseline” value ([1]; Group C, 960 mcg/kg/d IV, 8 hr) was −1.3 ± 4.7 mmHg and the “SVR Change from baseline” value ([1]; Group C, 960 mcg/kg/d IV, 8 hr) was −255 ± 188 dynes * sec/cm5. For the same substance, the “CI Change from baseline” value [1, 4] was 0.67 ± 0.15 L/min/m2, the “CO Change from baseline” value [1, 4] was 1.25 ± 0.03 L/min and the “DBP Change from baseline” value [1, 4] was −6.5 ± 7.5 mmHg. The “HR Change from baseline” value [1, 4] was 0.67 ± 3.6 beats/min, the “PAP Change from baseline” value [1, 4] was −5.0 ± 3.4 mmHg and the “PCWP Change from baseline” value [1, 4] was −3.5 ± 3.0 mmHg. The “PVR Change from baseline” value [1, 4] was −82.5 ± 55.5 dynes * sec/cm5, the “RAP Change from baseline” value [1, 4] was −1.5 ± 2.7 mmHg and the “SBP Change from baseline” value [1, 4] was −7.3 ± 9.5 mmHg. The “SVR Change from baseline” value [1, 4] was −395 ± 217 dynes * sec/cm5, the “drop of PVR” value ([1]; Group C, 960 mcg/kg/day IV) was ~30% and the “time course of NT-pro BNP” value ([1]; Groups A and C) was “significant declines”. For the same substance, the “creatinine and BUN post-infusion” value ([1]; after doses equivalent to 960 mcg/kg/day IV, spontaneously resolved by Day 30) was “increase on Day 9”, the tolerability ([1]; all doses, 10-960 mcg/kg/day IV) was “well tolerated” and the infusion-related adverse events ([1]; all groups) was “no infusion-related clinically significant adverse events”. For the same substance, the symptomatic hypotension ([1]; all groups) was “no symptomatic hypotension was observed”, the heart rate ([1]; all groups, 10-960 mcg/kg/d IV) was “did not change in any group” and the “creatinine values during infusion” value ([1]; all groups, significant in groups A and C) was “decreased”. For the same substance, the right atrial pressure ([1]; all treatment groups) was “None of the treatment groups showed a significant decrease”, the “alterations of SBP” value ([1]; in general, all groups) was “significant alterations of SBP (FIG. 8) were not observed” and the “vital signs, ECG, serum chemistry, and hematology parameters” value ([1]; throughout the study) was “did not evoke any abnormalities”. The “maximally tolerated dose (MTD) of IV relaxin” value ([1]; without physician supervision, chronic HF patients) was 240 to 480 µg/kg/day, the CI [2] was “increase in CI” and the SVR [2] was “decrease in SVR”. The mean arterial pressure [2] was “without affecting mean arterial pressure”.
